Measured values reported in patent publication US20260184700A1, “PDK1 REGULATORY COMPOUND AND COMPOSITION CONTAINING THE SAME” (PROVIBIO CO., LTD., priority 2024, published 2026).

Key:
[1] = system: HCT-116 colon cancer cell lines; assay: Invasion Assay using Matrigel, HCT-116; format: cell-based, human; conditions: HCT-116, Matrigel invasion, 24 hours treatment
Method: To evaluate the metastasis inhibitory efficacy of the compounds of the present invention on HCT-116 colon cancer cell lines, an Invasion Assay using Matrigel was performed to assess the cells' invasion ability.
First, Matrigel was thawed on ice in RPMI-1640 medium without FBS, then diluted with DMEM at a ratio of 1:20.
The diluted Matrigel mixture was applied to the upper chamber at 100 μl per well, and 750 μl of RPMI-1640 without FBS was added to the lower chamber.
The plates were then incubated at 37° C. for 1 hour to allow the Matrigel to solidify.
After coating, the Matrigel mixture in the upper chamber was removed using a pipette, and the chamber was washed with RPMI without FBS.
Human-derived colorectal cancer cell line HCT-116, obtained from the Korean Cell Bank, was cultured in RPMI-1640 medium containing 10% FBS.
Following stabilization, the cells were harvested using Trypsin-EDTA treatment, centrifuged at 1,200 rpm for 3 minutes, the supernatant was removed, and the cells were resuspended in the same medium, the medium in the lower chamber was replaced with 750 μl of RPMI-1640 supplemented with 10% FBS, and the cells were seeded into the upper chamber at a density of 5×10^4 cells/well.
The cells were cultured for 24 hours after attachment, and then the compounds according to the present invention (G078, G085, G086, G088, G089, PBK-2024-010, PBK-2025-010, PBK-2025-013, PBK-2025-016) and the control substance DMSO were diluted and added to the upper chamber after removing the medium.
Additionally, the medium in the lower chamber was replaced with fresh RPMI-1640 containing FBS, and the culture was continued.
After an additional 24 hours, the medium was removed, and 1 ml of methanol was added for 10 minutes to fix the cells.
Subsequently, 1 ml of Hematoxylin was added and reacted for 5 minutes, followed by 1 ml of Eosin, which was reacted for 30 seconds. The sample was then washed with distilled water (DW).
After staining was complete, any remaining cells in the upper chamber were removed. Finally, the infiltrated cells were observed under a microscope, photographed, and the degree of infiltration was analyzed.

[2] = system: Human B Lymphocyte cell line, SU-DHL-8; assay: Relative cell viability, CCK-8, SU-DHL-8; format: cell-based; conditions: 48 hours
Method: Human-derived B lymphoma cell line SU-DHL-8 (Cat. #CRL-2961) purchased from ATCC was cultured in RPMI-1640 medium containing 10% FBS, 100 U/mL penicillin, and 100 μg/mL streptomycin.
The cell culture medium was then harvested, centrifuged at 1,300 rpm for 5 minutes, and the supernatant was removed. The cells were resuspended in the same medium and dispensed into a 96-well plate (Costar 96-well cell culture plate, Corning) at 90 μL per well, resulting in the conditions specified in Table 5.
Then, 10 μL of CCK-8 was added to each well, and the plates were incubated again at 37° C. in a 5% CO2 incubator for 4 hours.
In other words, when the survival rate of untreated cells (DMSO) is set at 100%, the relative cell survival rate in each group treated with the drug at different concentrations is indicated.

[3] = system: T cells isolated from mouse spleen; assay: T cell proliferation inhibition, CFSE flow cytometry, CD3/CD28 activation; format: cell-based; conditions: CD3/CD28 activated, 3 days
Method: To verify the T cell proliferation inhibitory effect of the compounds according to the present invention, the following experiment was performed based on flow cytometry analysis using carboxyfluorescein diacetate succinimidyl ester (CFSE), a fluorescent dye that binds to intracellular molecules via covalent bonds.
Spleens were extracted from 7-week-old C57BL/6 mice, ground, and then separated into single cells using a strainer (40 μm pore size, SPL). Red blood cells were removed using ACK (Ammonium-Chloride-Potassium) lysis buffer to isolate white blood cells.
Finally, using a MACS Magnetic Stand and LS column, T cells were isolated from the spleen.
The T cells isolated from the spleen were resuspended in 1 mL of free medium (RPMI-1640+200 U/mL penicillin+200 μg/mL streptomycin), and 0.3 μL of CFSE (10 mM) was added. The mixture was incubated at 37° C. for 5 minutes.
Free medium (10 mL) was added to stop the reaction, and the cells were centrifuged to obtain the cell pellet.
RPMI 1640 medium containing 10% FBS, 100 U/mL penicillin, 100 μg/mL streptomycin, and resuspended the cells. The cells were then seeded into a 96-well plate at a density of 2×10^5 cells per well and activated with CD3 and CD28 antibodies (0.5 μg/mL each) to activate T cells.
The compound diluted in DMSO was added at concentrations of 10 nM, 100 nM, 1 μM, 10 μM, 30 μM, and 50 μM, with three wells per concentration, and cultured at 37° C. and 5% CO2 for three days. The cells were then analyzed using a FACS Canto instrument.
The proliferation inhibition rate (%) was calculated using the following formula: […]

SMILES	number of infiltrated cells [1]	Relative cell viability (%) ([2]; SU-DHL-8, 1 μM)	Relative cell viability (%) ([2]; SU-DHL-8, 10 μM)	Relative cell viability (%) ([2]; SU-DHL-8, 30 μM)	Relative cell viability (%) ([2]; SU-DHL-8, 50 μM)	Proliferation inhibition rate (%) ([3]; compound 100 nM)	Proliferation inhibition rate (%) ([3]; compound 1 μM)	Proliferation inhibition rate (%) ([3]; compound 10 μM)	Proliferation inhibition rate (%) ([3]; compound 30 μM)	Proliferation inhibition rate (%) ([3]; compound 50 μM)	Proliferation inhibition rate (%) ([3]; compound 10 nM)
Nc1ncccc1C(=O)NCCCCCCCCCCCCN1CCNCC1 [Compound 5, 2-Amino-N-(12-(piperazin-1-yl)dodecyl)-nicotinamide]	reduction in the number of infiltrated cells	–	–	–	–	–	–	–	–	–	–
CN1CCN(C(=O)OC(C)(C)C)CC1CCCCCCCCNC(=O)c1cccnc1N (centres unmarked) [Compound 12, tert-Butyl 3-(8-(2-aminonicotinamide)octyl)-4-methylpiperazine-1-carboxylate]	–	7.60%	3.79%	1.64%	1.13%	–	–	–	–	–	–
CC1CN(CCCCCCCCCCCCNC(=O)c2cccnc2N)CC(C)O1 (centres unmarked) [Compound 21, 2-Amino-N-(12-(2,6-dimethylmorpholino)dodecyl) nicotinamide]	–	–	–	3.70%	–	100.00%	100.00%	100.00%	100.00%	100.00%	–
O=C(NCCCCCCCCCCCCN1CCN2CCCC2C1)c1cccnc1 (centres unmarked) [Compound 23, N-(12-(hexahydropyrrolo[1,2-a]pyrazin-2 (1H)-yl)dodecyl)nicotinamide]	reduction in the number of infiltrated cells	–	–	–	–	–	–	–	–	–	–
CC1CCN(CCCCCCCCCCCCNC(=O)c2cccnc2N)C1 (centres unmarked) [Compound 24, 2-Amino-N-(12-(3-methylpyrrolidin-1-yl)dodecyl) nicotinamide]	–	–	–	0.62%	–	100.00%	100.00%	100.00%	100.00%	100.00%	–
Nc1ncccc1C(=O)NCCCCCCCCCCCCN1CCS(=O)(=O)CC1 [Compound 25, 2-Amino-N-(12-(1,1-dioxidothiomorpholino)dodecyl) nicotinamide]	–	–	–	0.11%	0.95%	–	100.00%	100.00%	100.00%	100.00%	–
Nc1ncccc1C(=O)NCCCCCCCCCCCCN1CCC(F)C1 (centres unmarked) [Compound 26, 2-Amino-N-(12-(3-fluoropyrrolidin-1-yl)dodecyl) nicotinamide]	–	1.70%	–	0.05%	–	100.00%	100.00%	100.00%	100.00%	100.00%	–
CC1CNCCN1CCCCCCCCCCCCNC(=O)c1cccnc1N (centres unmarked) [Compound 35, 2-Amino-N-(12-(2-methylpiperazin-1-yl)dodecyl) nicotinamide]	–	–	0.64%	0.42%	–	100.00%	100.00%	100.00%	100.00%	100.00%	–
Nc1ncccc1C(=O)NCCCCCCCCCCCCN1CCC(Oc2ccncc2)CC1 [Compound 38, 2-Amino-N-(12-(4-(pyridin-4-yloxy)piperidin-1-yl)dodecyl) nicotinamide]	–	–	3.30%	–	–	100.00%	100.00%	100.00%	100.00%	100.00%	–
CC(C)(C)OC(=O)N[C@H]1CCN(CCCCCCCCCCCCNC(=O)c2cccnc2N)C1 [Compound 49, tert-Butyl(S)-(1-(12-(2-aminonicotinamido)dodecyl)pyrrolidin-3-yl)carbamate]	reduction in the number of infiltrated cells	–	–	–	–	–	–	–	–	–	–
Cl.Nc1ncccc1C(=O)NCCCCCCCCCCCCN1CC[C@H](N)C1 [Compound 50, (S)-2-Amino-N-(12-(3-aminopyrrolidin-1-yl)dodecyl) nicotinamide Hydrochloride]	–	9.20%	–	–	–	100.00%	100.00%	100.00%	100.00%	100.00%	–
Cc1ccc(OC2CCN(CCCCCCCCCCCCNC(=O)c3cccnc3N)CC2)cc1 [Compound 51, 2-Amino-N-(12-(4-(p-tolyloxy)piperidin-1-yl)dodecyl) nicotinamide]	–	–	–	0.89%	0.48%	–	100.00%	100.00%	100.00%	100.00%	0.77%
Nc1ncccc1C(=O)NCCCCCCCCCCCCN1CC(F)C1 [Compound 52, 2-Amino-N-(12-(3-fluoroazetidin-1-yl)dodecyl)nicotinamide]	reduction in the number of infiltrated cells	–	–	–	–	–	–	–	–	–	–
Cc1ccc(C2CCN(CCCCCCCCCCCCNC(=O)c3cccnc3N)CC2)cc1 [Compound 55, 2-Amino-N-(12-(4-(p-tolyl)piperidin-1-yl)dodecyl) nicotinamide]	–	–	–	1.10%	0.97%	100.00%	100.00%	100.00%	100.00%	100.00%	–
Nc1ncccc1C(=O)NCCCCCCCCCCCCN1CCOC1=O [Compound 127, 2-amino-N-(12-(2-oxooxazolidin-3-yl)dodecyl) nicotinamide]	–	–	–	–	–	–	–	100.00%	100.00%	100.00%	–
Nc1ncccc1C(=O)NCCCCCCCCCCCCNC1CCOC1 (centres unmarked) [Compound 128, 2-amino-N-(12-((tetrahydrofuran-3-yl)amino)dodecyl) nicotinamide]	–	–	–	–	–	100.00%	100.00%	100.00%	100.00%	100.00%	–
Nc1ncccc1C(=O)NCCCCCCCCCCCCN1CC=CC1 [Compound 129, 2-amino-N-(12-(2,5-dihydro-1H-pyrrol-1-yl)dodecyl) nicotinamide]	–	–	–	–	–	90.00%	100.00%	100.00%	100.00%	100.00%	0.00%
